One test has as its system PpUGT91AH4. Description: LC-MS glucosyltransferase assay, varied trillin. Type of test: biochemical, Paris polyphylla. To be noted: saturating UDP-glucose; assay buffer 50 mM Tris-HCl pH 8.0, 1 mM MgCl2, 37 °C.
The subject of a further test is PpUGT91AH5. Description: LC-MS glucosyltransferase assay, varied trillin. Type of test: biochemical, Paris polyphylla. Particulars: saturating UDP-glucose; assay buffer 50 mM Tris-HCl pH 8.0, 1 mM MgCl2, 37 °C.

As to `C[C@@H]1CC[C@@]2(OC1)O[C@H]1C[C@H]3[C@@H]4CC=C5C[C@@H](O[C@@H]6O[C@H](CO)[C@@H](O)[C@H](O)[C@H]6O)CC[C@]5(C)[C@H]4CC[C@]3(C)[C@H]1[C@@H]2C` [trillin], the Km (commonly the concentration of substrate that gives half-maximal velocity) was found to be 5.67 ± 0.84 mM with PpUGT91AH4 and 7.81 ± 1.2 mM with PpUGT91AH5.
